{
  "source": "patent US11246813B2",
  "about": "“Composition for preventing hair loss or promoting hair development, comprising irone as active ingredient” (INDUSTRY-ACADEMIC COOPERATION FOUNDATION, YONSEI UNIVERSITY, priority 2017, dated 2022)",
  "type_in_all_cases": "cell-based",
  "key": {"IGF-1": {"tested_on": "IGF-1", "assay": "IGF-1 ELISA of culture solution of human hair dermal papilla cells", "details": "20 μM, 24 hours, vs DMSO", "procedure": "(§1) Human hair dermal papilla cells were purchased from PromoCell GmbH (Heidelberg, Germany). The human hair dermal papilla cells were cultured in an incubator at 37° C., 5% CO2 using HFDPC medium (PromoCell, Germany) with fetal bovine serum (FBS) and Dulbecco's modified Eagle's medium (DMEM; Gibco BRL, Gaithersburg, Md., USA). Due to the nature of the cells, cells at passages 2 to 5 were used for all experiments. The human hair dermal papilla cells were dispensed into 12-well plates to 3×10^4 cells/well, and then the culture solutions were treated with alpha-irone at 20 μM. DMSO was used as a negative control group. The alpha-irone-treated culture solutions were collected after 24 hours, and experiments were conducted using human VEGF ELISA Kit (Enzo Life Sciences, NY, USA), human IGF-1 ELISA kit (Enzo Life Sciences, NY, USA), and cAMP complete ELISA kit (Enzo Life Sciences, NY, USA), respectively, according to the manufacturers' protocol."}, "Cyc-D": {"tested_on": "Cyc-D", "assay": "RT-PCR of Cyc-D mRNA in human hair dermal papilla cells", "details": "20 μM, 24 hours", "procedure": "(§2) In the present invention, in order to identify activity of alpha-irone on human hair dermal papilla cells (DPCs), when the DPCs reached 70% to 80% confluency, treatment with alpha-irone at 20 μM was performed, and then culture was performed under a condition of 5% CO2 and 37° C. 24 hours after the treatment, the cells were collected and total RNA was extracted with Trizol Reagent (Gibco BRL, USA). The total RNA was quantified by absorbance measurement at 260 nm.\n(§3) After isolation of RNA, cDNA was synthesized by performing reverse transcription using oligo dT primers and SuperScript reverse transcriptase (GIBCOBRL, Gaithersburg, Md., USA). PCR was performed using, as a template, cDNA obtained through reverse transcription and using, as primers, 5′ and 3′ flanking sequences of the gene's cDNA to be amplified. Here, required primers were obtained by making a request for synthesis with a company specializing in primer manufacturing (BIONEER CORPORATION, Korea) and used. To a mixture obtained by mixing of 5 μl of 10× reaction buffer [100 mM KCL, 20 mM Tris-HCl (pH 8.0), 2.5 mM MgCl2], 4 μl of 10 mM dNTP, and 1 μl each of 0.2 μM sense and antisense primers, were added 2 μl of the completed cDNA reaction mixture and 2.5 unit of Taq polymerase (Takara, Japan). Then, the volume was adjusted with 50 μl of distilled water, and PCR was performed using a PCR instrument. […]"}, "β-catenin": {"tested_on": "β-catenin", "assay": "Western blot of β-catenin in human hair dermal papilla cells", "details": "20 μM", "procedure": "(§4) The […] of human hair dermal papilla cells, obtained by performing treatment with alpha-irone at 20 μM and performing culture, was homogenized with a lysis buffer, and then centrifuged at 13,000×g for 20 minutes at 4° C. Protein quantification was performed by Bradford assay. 40 μg of the protein was electrophoresed on 10% SDS polyacrylamide gel and then transferred to nitrocellulose membranes. The protein was allowed to react with each of PKA Cα, β-catenin, β-actin, and GAPDH antibody (Cell Signaling Technology, Danvers, Mass., USA). Each protein's signal was visualized with a chemiluminescent detection system (Amersham), and then the band's thickness was quantified using the Quantity One Analysis Software (Bio-Rad Laboratories)."}, "PKA Cα": {"tested_on": "PKA Cα", "assay": "Western blot of PKA Cα in human hair dermal papilla cells", "details": "20 μM", "procedure": "as §4"}, "cAMP": {"tested_on": "cAMP", "assay": "cAMP ELISA in human hair dermal papilla cells", "details": "20 μM, 24 hours, vs DMSO", "procedure": "as §1"}, "VEGF [1]": {"tested_on": "VEGF", "assay": "VEGF ELISA of culture solution of human hair dermal papilla cells", "details": "20 μM, 24 hours, vs DMSO", "procedure": "as §1"}, "[2]": {"tested_on": "human hair dermal papilla cells", "assay": "MTT assay, cell viability and proliferation in human hair dermal papilla cells", "procedure": "Human hair dermal papilla cells were purchased from PromoCell GmbH (Heidelberg, Germany). The human hair dermal papilla cells were cultured in an incubator at 37° C., 5% CO2 using HFDPC medium (PromoCell, Germany) with fetal bovine serum (FBS) and Dulbecco's modified Eagle's medium (DMEM; Gibco BRL, Gaithersburg, Md., USA). Due to the nature of the cells, cells at passages 2 to 5 were used for all experiments. The human hair dermal papilla cells were dispensed into 24-well plates to 1×10^5 cells/well, and then cultured for 24 hours in an incubator at 37° C., 5% CO2 so that the cells are stabilized. Treatment with samples at respective concentrations (0, 10, 20, 50, 100, 200, 400 μg/ml) was performed and culture was performed for 24 hours. Then, treatment with 100 ul of 3-(4,5-dimethylthiazol-2-yl)-2,5-diphenyltetrazolium bromide (MTT; Sigma Aldrich, St. Louis, USA) reagent at a concentration of […] was performed and culture was performed again for 4 hours. After removing the medium, the precipitate (formazan) was dissolved in DMSO and the absorbance was measured at a wavelength of 540 nm. A proliferation rate thereof was evaluated based on the absorbance of a control group containing only DMSO."}, "VEGF [3]": {"tested_on": "VEGF", "assay": "RT-PCR of VEGF mRNA in human hair dermal papilla cells", "details": "20 μM, 24 hours", "procedure": "as §2, §3"}, "IGF": {"tested_on": "IGF", "assay": "RT-PCR of IGF-1 mRNA in human hair dermal papilla cells", "details": "20 μM, 24 hours", "procedure": "as §2, §3"}, "LEF": {"tested_on": "LEF", "assay": "RT-PCR of LEF mRNA in human hair dermal papilla cells", "details": "20 μM, 24 hours", "procedure": "as §2, §3"}},
  "data": [
    {"smiles": "CC(=O)/C=C/C1C(C)=CCC(C)C1(C)C", "note": "(stereo not drawn) [alpha-irone, (E)-4-(2,5,6,6-tetramethylcyclohex-2-en-1-yl)but-3-en-2-one]", "values": [
      {"measurement": "increase in concentration of IGF-1", "setting": "IGF-1", "result": 18, "unit": "%"},
      {"measurement": "increase in mRNA expression of Cyc-D", "setting": "Cyc-D", "result": 250, "unit": "%"},
      {"measurement": "increase in expression of β-catenin protein in the cell nucleus", "setting": "β-catenin", "result": 38, "unit": "%"},
      {"measurement": "increase in expression of PKA Cα protein", "setting": "PKA Cα", "result": 52, "unit": "%"},
      {"measurement": "increase in cAMP concentration", "setting": "cAMP", "result": 51, "unit": "%"},
      {"measurement": "increase in concentration of VEGF", "setting": "VEGF [1]", "result": 27, "unit": "%"},
      {"measurement": "cell viability (MTT assay)", "setting": "[2]; 24 hours culture, up to a concentration of 400 μg/ml, vs DMSO control", "result": "did not affect the cell viability"},
      {"measurement": "increase of proliferation rate", "setting": "[2]; alpha-irone 10 μM", "result": 10.6, "unit": "%"},
      {"measurement": "increase of proliferation rate", "setting": "[2]; alpha-irone 20 μM", "result": 37, "unit": "%"},
      {"measurement": "increase of proliferation rate", "setting": "[2]; alpha-irone 50 μM", "result": 28, "unit": "%"},
      {"measurement": "increase in mRNA expression of VEGF", "setting": "VEGF [3]", "result": 247, "unit": "%"},
      {"measurement": "increase in mRNA expression of IGF", "setting": "IGF", "result": 217, "unit": "%"},
      {"measurement": "increase in mRNA expression of LEF", "setting": "LEF", "result": 348, "unit": "%"}
    ]}
  ]
}
